# Measurements as given in patent US6737041B1, “Non-ozone depleting vapocoolants” (University of Cincinnati, priority 1993, dated 2004).
# Assays:
# [1] = test system: skin (site on the subject's forearm); assay: Study 1: minimum skin temperature after spraying coolant for 5 seconds from 12 inches; assay type: in vivo, human; details: spray time 5 seconds; for Minimum temperature for site A, MEAN ± STANDARD DEVIATION / Minimum temperature for site A: site A (forearm); for Minimum temperature for site A, MEAN ± STANDARD DEVIATION / Minimum temperature for site B, MEAN ± STANDARD DEVIATION: mean of 5 subjects, in °C (unit assumed); for Minimum temperature for site B, MEAN ± STANDARD DEVIATION / Minimum temperature for site B: site B (forearm, different from A)
# Procedure: Tables 1 and 5 describe the experimental conditions in accordance with the procedural steps described above. The only difference between Table 1 and Table 5 and between Study 1 and Study 2 is that in Study 1 the spray time was five seconds, whereas in Study 2 the spray time was 3 seconds. Comparison is made between various coolants including ethylchloride at room temperature, ethylchloride at 11° C., Fluorimethane® at room temperature, Fuorimethane® at 11° C. and mixtures of HFC 152a and HFC 134a.
# (§1) Tables 2 and 6 describe the subjects chosen including their normal skin temperature, the sex, race, age, weight and height of the subjects.
# [2] = test system: skin (site on the subject's forearm); assay: Study 2: minimum skin temperature after spraying coolant for 3 seconds from 12 inches; assay type: in vivo, human; details: spray time 3 seconds; for Minimum temperature for site A, MEAN ± SD / Minimum temperature for site A: site A (forearm); for Minimum temperature for site A, MEAN ± SD / Minimum temperature for site B, MEAN ± SD: mean of 15 subjects, in °C (unit assumed); for Minimum temperature for site B, MEAN ± SD / Minimum temperature for site B: site B (forearm, different from A)
# Source text: Tables 1 and 5 describe the experimental conditions in accordance with the procedural steps described above. The only difference between Table 1 and Table 5 and between Study 1 and Study 2 is that in Study 1 the spray time was five seconds, whereas in Study 2 the spray time was 3 seconds.
# as §1
# [3] = subject 1, in °C (unit assumed)
# [4] = subject 2, in °C (unit assumed)
# [5] = subject 3, in °C (unit assumed)
# [6] = subject 4, in °C (unit assumed)
# [7] = subject 5, in °C (unit assumed)
# [8] = subject code 1, in °C (unit assumed)
# [9] = subject code 2, in °C (unit assumed)
# [10] = subject code 3, in °C (unit assumed)
# [11] = subject code 4, in °C (unit assumed)
# [12] = subject code 5, in °C (unit assumed)
# [13] = subject code 6, in °C (unit assumed)
# [14] = subject code 7, in °C (unit assumed)
# [15] = subject code 8, in °C (unit assumed)
# [16] = subject code 9, in °C (unit assumed)
# [17] = subject code 10, in °C (unit assumed)
# [18] = subject code 11, in °C (unit assumed)
# [19] = subject code 12, in °C (unit assumed)
# [20] = subject code 13, in °C (unit assumed)
# [21] = subject code 14, in °C (unit assumed)
# [22] = subject code 15, in °C (unit assumed)
compound,measurement,setting,value
"CCCl [EC, Ethyl chloride]","Minimum temperature for site A, MEAN ± STANDARD DEVIATION",[1],−14.93 ± 2.45
same,Minimum temperature for site A,[1]; [3],−13.22
same,Minimum temperature for site A,[1]; [4],−16.87
same,Minimum temperature for site A,[1]; [5],−17.56
same,Minimum temperature for site A,[1]; [6],−11.72
same,Minimum temperature for site A,[1]; [7],−15.26
same,"Minimum temperature for site B, MEAN ± STANDARD DEVIATION",[1],−16.40 ± 0.77
same,Minimum temperature for site B,[1]; [3],−16.87
same,Minimum temperature for site B,[1]; [4],−15.78
same,Minimum temperature for site B,[1]; [5],−15.73
same,Minimum temperature for site B,[1]; [6],−16.12
same,Minimum temperature for site B,[1]; [7],−17.50
same,"Minimum temperature for site A, MEAN ± SD",[2],−15.70 ± 1.56
same,Minimum temperature for site A,[2]; [8],−16.93
same,Minimum temperature for site A,[2]; [9],−14.64
same,Minimum temperature for site A,[2]; [10],−13.78
same,Minimum temperature for site A,[2]; [11],−14.86
same,Minimum temperature for site A,[2]; [12],−15.34
same,Minimum temperature for site A,[2]; [13],−14.75
same,Minimum temperature for site A,[2]; [14],16.70
same,Minimum temperature for site A,[2]; [15],−18.76
same,Minimum temperature for site A,[2]; [16],−15.46
same,Minimum temperature for site A,[2]; [17],−16.53
same,Minimum temperature for site A,[2]; [18],−14.68
same,Minimum temperature for site A,[2]; [19],−13.59
same,Minimum temperature for site A,[2]; [20],−14.52
same,Minimum temperature for site A,[2]; [21],−16.62
same,Minimum temperature for site A,[2]; [22],−18.45
same,"Minimum temperature for site B, MEAN ± SD",[2],−15.92 ± 2.01
same,Minimum temperature for site B,[2]; [8],−17.99
same,Minimum temperature for site B,[2]; [9],−17.03
same,Minimum temperature for site B,[2]; [10],−13.60
same,Minimum temperature for site B,[2]; [11],−16.89
same,Minimum temperature for site B,[2]; [12],−15.33
same,Minimum temperature for site B,[2]; [13],−12.73
same,Minimum temperature for site B,[2]; [14],−15.93
same,Minimum temperature for site B,[2]; [15],−18.79
same,Minimum temperature for site B,[2]; [16],−12.08
same,Minimum temperature for site B,[2]; [17],−14.03
same,Minimum temperature for site B,[2]; [18],−18.32
same,Minimum temperature for site B,[2]; [19],−16.52
same,Minimum temperature for site B,[2]; [20],16.48
same,Minimum temperature for site B,[2]; [21],−16.02
same,Minimum temperature for site B,[2]; [22],−17.12
"CCCl [ECC, Ethyl chloride]","Minimum temperature for site A, MEAN ± STANDARD DEVIATION",[1],−15.59 ± 2.50
same,Minimum temperature for site A,[1]; [3],−15.80
same,Minimum temperature for site A,[1]; [4],−11.32
same,Minimum temperature for site A,[1]; [5],−17.81
same,Minimum temperature for site A,[1]; [6],−16.19
same,Minimum temperature for site A,[1]; [7],−16.84
same,"Minimum temperature for site B, MEAN ± STANDARD DEVIATION",[1],−18.41 ± 1.92
same,Minimum temperature for site B,[1]; [3],−19.22
same,Minimum temperature for site B,[1]; [4],−15.56
same,Minimum temperature for site B,[1]; [5],−18.71
same,Minimum temperature for site B,[1]; [6],−17.80
same,Minimum temperature for site B,[1]; [7],−20.75
same,"Minimum temperature for site A, MEAN ± SD",[2],−16.12 ± 2.13
same,Minimum temperature for site A,[2]; [8],−17.89
same,Minimum temperature for site A,[2]; [9],−17.54
same,Minimum temperature for site A,[2]; [10],−14.82
same,Minimum temperature for site A,[2]; [11],−13.46
same,Minimum temperature for site A,[2]; [12],−17.04
same,Minimum temperature for site A,[2]; [13],−17.18
same,Minimum temperature for site A,[2]; [14],−13.22
same,Minimum temperature for site A,[2]; [15],−13.10
same,Minimum temperature for site A,[2]; [16],−18.11
same,Minimum temperature for site A,[2]; [17],−17.63
same,Minimum temperature for site A,[2]; [18],−15.56
same,Minimum temperature for site A,[2]; [19],−17.00
same,Minimum temperature for site A,[2]; [20],−13.13
same,Minimum temperature for site A,[2]; [21],−16.26
same,Minimum temperature for site A,[2]; [22],−19.80
same,"Minimum temperature for site B, MEAN ± SD",[2],−15.54 ± 3.33
same,Minimum temperature for site B,[2]; [8],−12.79
same,Minimum temperature for site B,[2]; [9],−17.73
same,Minimum temperature for site B,[2]; [10],−11.70
same,Minimum temperature for site B,[2]; [11],−16.21
same,Minimum temperature for site B,[2]; [12],−15.84
same,Minimum temperature for site B,[2]; [13],−15.32
same,Minimum temperature for site B,[2]; [14],−10.04
same,Minimum temperature for site B,[2]; [15],−20.86
same,Minimum temperature for site B,[2]; [16],−16.69
same,Minimum temperature for site B,[2]; [17],−18.07
same,Minimum temperature for site B,[2]; [18],−18.65
same,Minimum temperature for site B,[2]; [19],−10.58
same,Minimum temperature for site B,[2]; [20],−12.08
same,Minimum temperature for site B,[2]; [21],−17.86
same,Minimum temperature for site B,[2]; [22],−18.69
